Like-named read-outs stand apart in the source and are kept apart here.
Key:
[1] = test system: APP/PS1 mice; assay: Y-maze test; assay type: in vivo; conditions: HYP 20/40/80 mg/kg nasal, every 3 days, after 7 weeks
Experimental: All animal care and experimental procedures were performed in accordance with the “Institutional Animal Care and User Committee Guidelines” of the Macau University of Science and Technology. APP/PSEN1 (APP/PS1) mice (N000175) were purchased from the Nanjing Institute of Biomedical Sciences, Nanjing University, China, weighing 25 ± 5 g. The animals were housed in a temperature-controlled room with a 12 h light/dark cycle and given ad libitum food and water. Male mice were randomly divided into the following 6 experimental groups. (a) wild-type group (n = 6), (b) APP/PS1 group (n = 6), (c) HYP (20 mg/kg group) (n = 7), (d) HYP (40 mg/kg) group (n = 8), (e) HYP (80 mg/kg) group (n = 8) and (f) memantine (MEM) (10 mg/kg) positive control group (n = 8). HYP was dissolved in the solvent containing 10% DMSO, 40% PEG300 and 5% Tween-80 in PBS, and administrated via nasal injection for every 3 days with a volume of 0.5 μL/g of body weight for 8 consecutive weeks. Y-maze tests assess cognitive changes, short-term spatial working memory (by spontaneous alternation), and exploratory activity (by total number of arm choices) of mice. […] The number of total arm choices and sequence of arm choices were recorded. The percentage of alternation can be calculated as the ratio of total number of alternations / the number of arms entered x 100%. […]

[2] = test system: HT22 cells; assay: Cell membrane permeability assay (intracellular HYP by LC-MS/MS); assay type: in vitro ADME; conditions: HYP 20–80 μM, 24 h
Experimental: HT22 cells were co-treated with Aβ aggregates and HYP (20–80 μM) for 24 h and washed with PBS for 3 times. The cell membrane was disrupted with 200 μL methanol for the collection and centrifugation of cellular content at 20,000 rpm for 10 min. The supernatant was then collected for LC-MS/MS analysis. HYP content was quantified using UHPLC-MS/MS system, which includes Agilent 1290 Infinity UHPLC, and Agilent 6460 Triple Quadrupole, equipped with an electrospray ionization interface used to generate positive ions for the determination of HYP. The compounds were analyzed by using the Agilent Zorbax Eclipse Plus C-18 column with a particle size of […] (flow rate: 0.35 mL/min). The mobile phase was set as follows: mobile phase A (0.1% formic acid in water) and mobile phase B (0.1% formic acid in ACN): 0–3 min, 10–30% B; 3–4 min, 70% B; 4–5 min, 30–70% B; 5–6 min, 70-10% B. The column and auto-sampler temperature were maintained at 30 °C and 4 °C, respectively. Data were analyzed by using Agilent MassHunter Workstation software B.01.03. The gas temperature was set at 300 °C with a flow rate of 11 L/min. Gases were set at 30 psi for the nebulizer, capillary, at 4000 V. For the HYP, the fragment was 170. The collision energy was set at 30; The mass transitions were as follows based on multiple reaction monitoring: m/z 464.38 → 299.9. For the Isorhamnetin (ISO), the fragment was 150. […]

[3] = Pharmacokinetics in serum after IV or IN administration; assay type: in vivo; conditions: 20 mg/kg, mice; for AUC(0-t) / Cmax / Tmax / k el / half-life: mouse, serum; for k el: read-out: Serum Ke (converted); for half-life: read-out: Serum t1/2 (converted)
Experimental: After tail vein injection or nasal administration, blood was collected at 5, 15 and 30 min, 1, 2, 4, 8, 12, 24, 48, 72, 120 and 168 h, for immediate centrifugation at 14,000 rpm for 5 min. The serum was harvested and stored at −20 °C until further processing. Brain tissue was collected and was thoroughly rinsed in saline to eliminate blood and blotted dry with filter paper. Each tissue sample was homogenized in saline (1:5, w/v) and stored at −20 °C until analysis. 50 μL of serum or 100 μL of brain tissue was put in a 1.5 mL EP tube, followed by the addition of 20 μL of internal standard solution (10 μM ISO). The protein was precipitated with 1 mL of ethyl acetate, vortexed for 5 min and centrifuged at 20,000 g (4 °C and 10 min). The supernatant solution was nitrogen blown to dry and re-suspended with 100 μL of 50% acetonitrile for centrifugation again. The supernatant was taken for analysis by using LC-MS/MS. HYP content was quantified using UHPLC-MS/MS system, which includes Agilent 1290 Infinity UHPLC, and Agilent 6460 Triple Quadrupole, equipped with an electrospray ionization interface used to generate positive ions for the determination of HYP. The compounds were analyzed by using the Agilent Zorbax Eclipse Plus C-18 column with a particle size of […] (flow rate: 0.35 mL/min). The mobile phase was set as follows: mobile phase A (0.1% formic acid in water) and mobile phase B (0.1% formic acid in ACN): 0–3 min, 10–30% B; 3–4 min, 70% B; 4–5 min, 30–70% B; 5–6 min, 70-10% B. The column and auto-sampler temperature were maintained at 30 °C and 4 °C, respectively. Data were analyzed by using Agilent MassHunter Workstation software B.01.03. The gas temperature was set at 300 °C with a flow rate of 11 L/min. Gases were set at 30 psi for the nebulizer, capillary, at 4000 V. For the HYP, the fragment was 170. The collision energy was set at 30; The mass transitions were as follows based on multiple reaction monitoring: m/z 464.38 → 299.9. For the Isorhamnetin (ISO), the fragment was 150. The collision energy was set at 30; The mass transitions were as follows based on multiple reaction monitoring: m/z 315.4 → 300.1, The measurements of HYP were done using the standard and linear least-squares regression curve.

In the case of `O=c1c(O[C@@H]2O[C@H](CO)[C@H](O)[C@H](O)[C@H]2O)c(-c2ccc(O)c(O)c2)oc2cc(O)cc(O)c12` [HYP, Quercetin-3-O-β-D-galactopyranoside], the “spatial working memory (Y-maze alternation)” value [1] is reported as “resumed to a level comparable to WT mice group”, the “intracellular level of HYP” value [2] is reported as “increased upon the escalating concentration of HYP” and the “Serum F (AUCIN/AUCIV ratio)” value ([3]; IN) is reported as 23.2%. The AUC(0-t) ([3]; inhaled or intranasal, IN) was 5500 ± 1220 µg·h/mL, the Cmax ([3]; inhaled or intranasal, IN) was 300 ± 102 µg/mL and the Tmax ([3]; inhaled or intranasal, IN) was 0.5 h. The k el ([3]; inhaled or intranasal, IN) was 1.67e-05 s⁻¹, the half-life ([3]; inhaled or intranasal, IN) was 25.6 ± 12.5 h and the AUC(0-t) ([3]; IV) was 23700 ± 1740 µg·h/mL. For the same compound, the Cmax ([3]; IV) was 1160 ± 268 µg/mL, the Tmax ([3]; IV) was 0.08 h and the k el ([3]; IV) was 0.000103 s⁻¹. It also gave a half-life ([3]; IV) of 1.85 ± 1.25 h.
